For test [1], the target named is GSK3b (GST-full length GSK3b) (Homo sapiens (Human), UniProt P49841). Nature of the test: GSK3b TR-FRET kinase assay. Format: biochemical. The settings on record: 1 nM GSK3b, 2 μM ATP, 30 minute preincubation, Table 16, read-out: GSK3-B TR-FRET BIOCHEMICAL (TR-FRET). The gist of the method: (§1)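 Full-length GST-tagged human enzyme (1 nM) is exposed to test compound for 30 min before substrates are added. Phosphorylation of a primed biotinylated glycogen synthase peptide proceeds 100 min at room temperature at low ATP (4 μM α; 2 μM β) or high ATP (1 mM). Product is quantified by TR-FRET.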
Chain of GSK3b (GST-full length GSK3b) (P49841 whole entry): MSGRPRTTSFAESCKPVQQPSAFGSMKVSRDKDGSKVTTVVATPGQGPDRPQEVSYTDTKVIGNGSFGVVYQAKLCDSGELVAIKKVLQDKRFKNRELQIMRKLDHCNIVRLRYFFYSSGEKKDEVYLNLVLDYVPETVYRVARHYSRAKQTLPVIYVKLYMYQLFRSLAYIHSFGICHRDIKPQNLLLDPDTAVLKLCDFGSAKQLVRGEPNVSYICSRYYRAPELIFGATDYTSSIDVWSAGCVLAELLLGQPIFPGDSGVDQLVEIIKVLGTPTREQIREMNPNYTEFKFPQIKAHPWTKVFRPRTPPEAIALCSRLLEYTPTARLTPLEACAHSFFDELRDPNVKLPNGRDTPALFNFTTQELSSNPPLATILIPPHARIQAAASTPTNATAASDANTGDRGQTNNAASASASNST

The target in test [2] is GSK3α (GST-full length GSK3α) (Homo sapiens (Human), UniProt P49840). Nature of the test: GSK3α TR-FRET kinase assay. Format: biochemical. The settings on record: 1 nM GSK3α, 4 μM ATP, 30 minute preincubation, Table 16, read-out: GSK3-A TR-FRET BIOCHEMICAL (TR-FRET). Summed up:
as §1

Each structure is given as a SMILES string. Read-outs that look alike come from different tables or passages of the source.

Chain of GSK3α (GST-full length GSK3α) (P49840 whole entry): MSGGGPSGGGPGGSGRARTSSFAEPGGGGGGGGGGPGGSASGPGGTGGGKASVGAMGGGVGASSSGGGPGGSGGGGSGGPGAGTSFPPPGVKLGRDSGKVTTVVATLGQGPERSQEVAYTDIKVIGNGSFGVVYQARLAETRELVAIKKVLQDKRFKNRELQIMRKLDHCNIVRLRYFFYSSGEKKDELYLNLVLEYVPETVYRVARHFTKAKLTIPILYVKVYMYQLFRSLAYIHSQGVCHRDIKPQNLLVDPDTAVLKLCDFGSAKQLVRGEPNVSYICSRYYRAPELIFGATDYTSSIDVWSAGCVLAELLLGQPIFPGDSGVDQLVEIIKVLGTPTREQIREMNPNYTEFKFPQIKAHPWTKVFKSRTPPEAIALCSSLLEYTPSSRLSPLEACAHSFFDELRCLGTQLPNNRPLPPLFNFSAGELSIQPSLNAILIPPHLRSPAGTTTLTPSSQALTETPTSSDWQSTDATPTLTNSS

Regarding `O=C1CCCC2=C1C1(CCOCC1)c1c[nH]nc1N2` [Compound 884111], the IC50 in test [1] (IC50) is > 5000 nM; in test [2] (IC50) it was 1000 to 5000 nM.

Take `CC1CC(=O)C2=C(C1)Nc1n[nH]cc1C21CCOCC1` (stereo not shown) [Compound 884112]: the IC50 in test [1] (IC50) and in test [2] (IC50) was 100 to 1000 nM throughout.

`C[C@@H]1C[C@H](C)C[C@@]2(C1)C1=C(CC(C)(C)CC1=O)Nc1n[nH]cc12` [Compound 884113]: the IC50 was in the range of 1000 to 5000 nM in test [1] and 100 to 1000 nM in test [2].

Turning to `C[C@@H]1C[C@H](C)C[C@]2(C1)C1=C(CC(C)(C)CC1=O)Nc1n[nH]cc12` [Compound 884114], the IC50 in test [1] and in test [2] was 100 to 1000 nM in each case.

Turning to `CCC1(c2cccc(N3CCCCC3)c2)C2=C(CC(C)(C)CC2=O)Nc2n[nH]c(C)c21` (stereo not shown) [Compound 884115], the IC50 in test [1] (IC50) and in test [2] (IC50) was 100 to 1000 nM in each case.

In the case of `CO[C@H]1CC[C@]2(CC1)C1=C(CC(C)(C)CC1=O)Nc1n[nH]cc12` [Compound 884119], the IC50 was 100 to 1000 nM in test [1] and ≤ 100 nM in test [2].

For `CO[C@H]1CC[C@@]2(CC1)C1=C(CC(C)(C)CC1=O)Nc1n[nH]cc12` [Compound 884120], the IC50 in test [1] and in test [2] was 100 to 1000 nM in each case.

For the molecule `CCC1(c2cccc(N3CCCCCC3)c2)C2=C(CC(C)(C)CC2=O)Nc2n[nH]cc21` (stereo not shown) [Compound 885088], the IC50 in test [1] (IC50) and in test [2] (IC50) was 100 to 1000 nM each time.

For the molecule `CCC1(c2cccc(N3CCCC3C)c2)C2=C(CC(C)(C)CC2=O)Nc2n[nH]cc21` (stereo not shown) [Compound 885204], the values for the IC50 in test [1] (IC50) and in test [2] (IC50) were 100 to 1000 nM and ≤ 100 nM, respectively.

For the molecule `CCN(c1cccnc1)c1cccc(C2(CC)C3=C(CC(C)(C)CC3=O)Nc3n[nH]cc32)c1` (stereo not shown) [Compound 885331], the IC50 in test [1] (IC50) and in test [2] (IC50) was ≤ 100 nM throughout.

As for `CCC1(c2cccc(N(c3cccnc3)C(C)C)c2)C2=C(CC(C)(C)CC2=O)Nc2n[nH]cc21` (stereo not shown) [Compound 885344], the IC50 in test [1] (IC50) and in test [2] (IC50) was ≤ 100 nM each time.

Consider `CCN(c1cccc(C2(CC)C3=C(CC(C)(C)CC3=O)Nc3n[nH]cc32)c1)c1cccnc1C` (stereo not shown) [Compound 885367], for which the figures for the IC50 in test [1] (IC50) and in test [2] (IC50) were 1000 to 5000 nM and 100 to 1000 nM, respectively.

For `CCC1(c2cccc(N(C)c3cnn(C)c3)c2)C2=C(CC(C)(C)CC2=O)Nc2n[nH]cc21` (stereo not shown) [Compound 885382], the IC50 in test [1] (IC50) fell in the range of 1000 to 5000 nM; in test [2] (IC50), 100 to 1000 nM.

As for `CC[C@]1(c2cccc([C@H]3CCOC3)c2)C2=C(CC(C)(C)CC2=O)Nc2n[nH]cc21` [Compound 889558], the IC50 in test [1] (IC50) was 100 to 1000 nM; in test [2] (IC50), ≤ 100 nM.

In the case of `CCC1(c2cccc(C3CCOC3)c2)C2=C(CC(C)(C)CC2=O)Nc2n[nH]cc21` (stereo not shown) [Compound 889565], the IC50 in test [1] (IC50) was 1000 to 5000 nM; in test [2] (IC50), 100 to 1000 nM.

Take `CC1(C)CC(=O)C2=C(C1)Nc1n[nH]cc1C21CSC1` [Compound 889567]: the IC50 was 100 to 1000 nM in test [1] and ≤ 100 nM in test [2].

Turning to `CC1(C)CC(=O)C2=C(C1)Nc1n[nH]cc1C21CN(C(=O)OCc2ccccc2)C1` [Compound 889568], the IC50 in test [1] was 1000 to 5000 nM; in test [2] it was 100 to 1000 nM.

Take `CC1(C)CC(=O)C2=C(C1)Nc1n[nH]cc1C21COC1` [Compound 889569]: the IC50 in test [1] and in test [2] was 100 to 1000 nM in each case.

Regarding `CC1(C)CC(=O)C2=C(C1)Nc1n[nH]cc1C2(CO)CO` [Compound 889570], the IC50 in test [1] (IC50) and in test [2] (IC50) was > 5000 nM each time.

For the molecule `CC1(C)CC(=O)C2=C(C1)Nc1n[nH]cc1C21CCCNCC1` (stereo not shown) [Compound 889571], the IC50 in test [1] (IC50) and in test [2] (IC50) was > 5000 nM each time.

As for `O=C1CC(C(F)(F)F)CC2=C1C1(CCOCC1)c1c[nH]nc1N2` (stereo not shown) [Compound 889572], the IC50 in test [1] (IC50) and in test [2] (IC50) was 100 to 1000 nM each time.

As for `O=C1CC2(CCOC2)CC2=C1C1(CCOCC1)c1c[nH]nc1N2` (stereo not shown) [Compound 889573], the IC50 in test [1] (IC50) is 100 to 1000 nM; in test [2] (IC50) it was ≤ 100 nM.

For the molecule `CC1(C)CC(=O)C2=C(C1)Nc1n[nH]cc1C21CCCN(CC(F)F)CC1` (stereo not shown) [Compound 889574], the IC50 in test [1] and in test [2] was 100 to 1000 nM in each case.

(Values after patent US20250313563A1, “GLYCOGEN SYNTHASE KINASE 3 INHIBITORS AND USES THEREOF” (The Broad Institute, Inc., priority 2022, published 2025).)
